Laboratory results reported in patent publication US20100099762A1, “COMBINATION THERAPY” (THE MENTAL HEALTH RESEARCH INSTITUTE OF VICTORIA, priority 2006, published 2010).
Marks after values point to notes of the source that are not given here.

Test system: schizophrenia
Test: Randomised double blind multicentre placebo controlled trial of NAC in combination with an antipsychotic agent in schizophrenia
Assay type: in vivo, human
Source text: There is preclinical evidence of a reduction in antioxidant defences in schizophrenia, particularly a reduction in glutathione, which is a primary endogenous antioxidant defence. N-acetyl cysteine (NAC) is a bioavailable precursor of glutathione. This Example is a randomised double blind multicentre placebo controlled trial of the use of NAC in combination with an antipsychotic agent in the treatment of schizophrenia. A total of 140 individuals were randomised to receive 2 g daily of NAC in two divided doses, or placebo, together with their normal dosage of antipsychotic agent.
Participants were assigned randomly and consecutively to treatment with NAC or placebo in a double blind fashion. The randomisation log was generated by an independent individual using the traditional coin tossing method. The investigators and clinicians remained blind until data analysis was completed. The person generating the randomisation schedule was not involved in participant interviews, either for participant eligibility or outcome measurements.
All participants remained on their usual antipsychotic medication for the duration of the trial. The dose of the primary therapy was monitored. Participants were recruited through advertisements, referral by case clinicians and through database screening. All participants provided written informed consent as part of complying with the protocol.
All randomised participants received two NAC (500 mg) capsules twice daily, to a total dose of 2 g daily, or matching placebo capsules. Human dosing can be up to 5 g/day without adverse effects (Louwerse E. S. et al., 1995). A daily dose that is within the range of efficacy in published clinical trials (Adair J. C. et al., 2001, Van Schooten F. J. et al., 2002, and Behr J, et al., 2002) was selected. Once per day dosing is desirable in the drug treatment of schizophrenia, where medication compliance is known to be a challenge in management. However, steady state plasma levels cannot be achieved with a once daily oral dose of NAC as the plasma half-life is only 2-3 hours (Holdiness M. R., 1991 and Kelly G. S., 1998). While a twice-daily (BID) dosing regimen would also not be expected to achieve steady state plasma levels, dose intervals beyond BID were considered to markedly increase the risk of non-compliance in this population.
To be included, the patients were required to meet Diagnostic and Statistical Manual of Mental Disorders, fourth edition (DSM-IV) (Association AP, 1994) criteria for schizophrenia and have a PANSS total score of ≧55, or at least two items in the positive and/or negative items being >3, or have a CGI-S≧3. They needed to have the capacity to consent to the study, and be aged between 18 and 65. Both inpatients and outpatients were eligible. Participants needed to be currently taking an antipsychotic agent and to be utilising effective contraception if female and of childbearing age. Exclusion criteria included patients with abnormal renal, hepatic, thyroid or haematological findings, patients with a systemic medical disorder including asthma, allergies or any history of bronchospasm, respiratory insufficiency and recent gastrointestinal ulcers and females who were positive on pregnancy screening testing at baseline. Participants who were taking a mood stabiliser (e.g. lithium, valproate and carbamazepine) were excluded as were those currently taking drugs that are known to prevent GSH depletion (500+mg of NAC/day, 200+ug of selenium/day or 500+IU of Vitamin E/day).
Withdrawal from the trial occurred if participants ceased taking their trial medication for seven consecutive days, or ceased effective contraception, or became pregnant. A change in primary antipsychotic from one medication to another required participants to be withdrawn from the study. Similarly, the addition of a mood stabiliser required withdrawal of the participant. Dose changes to existing medications were not an exclusion criterion, and this was monitored. […]

[1] = score at week 24, end of treatment
[2] = washout, week 28, LOCF ANCOVA with interaction term
[3] = week 8, LOCF ANCOVA, Placebo-NAC
[4] = week 24, LOCF ANCOVA, Placebo-NAC
[5] = week 24 to washout, week 28, LOCF ANCOVA
[6] = week 24 to washout, week 28, LOCF ANCOVA with interaction term

CC(=O)N[C@@H](CS)C(=O)O [NAC, N-acetyl cysteine]
PANSS General: NAC Mean Week 24 (SD) [1]: 28.8 (8.5) | PANSS Negative: NAC Mean Week 24 (SD) [1]: 13.7 (4.9) | PANSS Positive: NAC Mean Week 24 (SD) [1]: 14.5 (5.6) | PANSS Total: NAC Mean Week 24 (SD) [1]: 57.0 (16.1) | SAS: NAC Mean Week 24 (SD) [1]: 1.6 (1.3) | SOFAS: NAC Mean Week 24 (SD) [1]: 58.8 (12.7) | Onset of clinical benefit on CGI-I (scores significantly better than placebo) (time from commencing treatment, Fisher's categorical analysis): ≤ 4 weeks | Onset of clinical benefit on CGI-S (scores significantly better than placebo) (time from commencing treatment, MMRM): ≤ 2 weeks | AIMS: LS Mean Difference (95% CI) between placebo and NAC at post-treatment discontinuation (washout, week 28, LOCF ANCOVA): −0.40 (−1.41, 0.61) | BAS: LS Mean Difference (95% CI) between placebo and NAC at post-treatment discontinuation (washout, week 28, LOCF ANCOVA): −0.31 (−0.91, 0.29)^‡ | GAF: LS Mean Difference (95% CI) between placebo and NAC at post-treatment discontinuation (washout, week 28, LOCF ANCOVA): 0.61 (−3.5, 4.72)^‡ | PANSS Positive: LS Mean Difference (95% CI) between placebo and NAC at post-treatment discontinuation (washout, week 28, LOCF ANCOVA): 0.75 (−0.72, 2.22) | SAS: LS Mean Difference (95% CI) between placebo and NAC at post-treatment discontinuation (washout, week 28, LOCF ANCOVA): −0.52 (−0.99, −0.05)* | SOFAS: LS Mean Difference (95% CI) between placebo and NAC at post-treatment discontinuation (washout, week 28, LOCF ANCOVA): −1.17 (−4.89, 2.55) | PANSS General: LS Mean Difference (95% CI) between placebo and NAC at post-treatment discontinuation [2]: −0.85 (−3.45, 1.75)^‡ | PANSS Negative: LS Mean Difference (95% CI) between placebo and NAC at post-treatment discontinuation [2]: −1.58 (−3.17, 0.00)^‡ | PANSS Total: LS Mean Difference (95% CI) between placebo and NAC at post-treatment discontinuation [2]: −2.70 (−6.85, 1.45)^‡ | AIMS: Between Placebo-NAC differences Week 8 LS Mean Difference (95% CI) [3]: −0.31 (−1.0, 0.41) | BAS: Between Placebo-NAC differences Week 8 LS Mean Difference (95% CI) [3]: 0.20 (−0.24, 0.64) | GAF: Between Placebo-NAC differences Week 8 LS Mean Difference (95% CI) [3]: −0.51 (−3.7, 2.7) | PANSS General: Between Placebo-NAC differences Week 8 LS Mean Difference (95% CI) [3]: −1.5 (−3.4, 0.34) | PANSS Negative: Between Placebo-NAC differences Week 8 LS Mean Difference (95% CI) [3]: −0.49 (−1.8, 0.80) | PANSS Positive: Between Placebo-NAC differences Week 8 LS Mean Difference (95% CI) [3]: −0.25 (−1.5, 0.98) | PANSS Total: Between Placebo-NAC differences Week 8 LS Mean Difference (95% CI) [3]: −2.6 (−6.1, 0.80) | SAS: Between Placebo-NAC differences Week 8 LS Mean Difference (95% CI) [3]: −0.06 (−0.39, 0.26) | SOFAS: Between Placebo-NAC differences Week 8 LS Mean Difference (95% CI) [3]: −0.20 (−3.9, 3.5) | AIMS: Between Placebo-NAC differences Week 24 LS Mean Difference (95% CI) [4]: 0.12 (−0.65, 0.89) | BAS: Between Placebo-NAC differences Week 24 LS Mean Difference (95% CI) [4]: 0.54 (0.08, 1.00)* | GAF: Between Placebo-NAC differences Week 24 LS Mean Difference (95% CI) [4]: −2.6 (−6.6, 1.3) | PANSS Positive: Between Placebo-NAC differences Week 24 LS Mean Difference (95% CI) [4]: 0.50 (−1.1, 2.1) | SAS: Between Placebo-NAC differences Week 24 LS Mean Difference (95% CI) [4]: 0.11 (−0.27, 0.50) | SOFAS: Between Placebo-NAC differences Week 24 LS Mean Difference (95% CI) [4]: −0.92 (−5.67, 3.82) | AIMS: NAC Mean Overall Change (95% CI) at post-treatment discontinuation [5]: −0.27 (−1.0, 0.50) | BAS: NAC Mean Overall Change (95% CI) at post-treatment discontinuation [5]: 0.42 (−0.02, 0.86) | CGI-S: NAC Mean Overall Change (95% CI) at post-treatment discontinuation [5]: −0.17 (−0.41, 0.08) | GAF: NAC Mean Overall Change (95% CI) at post-treatment discontinuation [5]: 0.37 (−2.7, 3.5) | PANSS Positive: NAC Mean Overall Change (95% CI) at post-treatment discontinuation [5]: −0.96 (−2.0, 0.12) | SAS: NAC Mean Overall Change (95% CI) at post-treatment discontinuation [5]: 0.30 (−0.06, 0.65) | SOFAS: NAC Mean Overall Change (95% CI) at post-treatment discontinuation [5]: −0.79 (−3.8, 2.2) | PANSS General: NAC Mean Overall Change (95% CI) at post-treatment discontinuation [6]: 0.18 (−1.7, 2.1) | PANSS Negative: NAC Mean Overall Change (95% CI) at post-treatment discontinuation [6]: 0.60 (−0.55, 1.7) | PANSS Total: NAC Mean Overall Change (95% CI) at post-treatment discontinuation [6]: 0.56 (−2.4, 3.6) | Proportion of patients clinically improved on the CGI-I scale referred to baseline (week 28, after washout, NAC versus placebo): remained significantly greater | More subjects in the NAC treatment group showing improvement on CGI-I compared to placebo (weeks 12, 16 and 24): ≈ 25%
